Source: patent publication US10670605B2, “Cysteine reactive probes and uses thereof” (The Scripps Research Institute, priority 2015, dated 2020)

Key:
Assay in all cases: Competitive isoTOP-ABPP, cell lysates
Type in all cases: binding
[1] = biological target: STAT3 C259 (P40763) (Homo sapiens, UniProt P40763); conditions: for R value (DMSO/fragment): 250 μM, in vitro; for isoTOP-ABPP ratio, P40763_C259: 500 μM, invitro
[2] = biological target: UBE2L3 C86 (P68036) (Homo sapiens, UniProt P68036); conditions: for isoTOP-ABPP ratio, P68036_C86: 500 μM, invitro
[3] = biological target: T1, PDIA6 C55 (Q15084) (Homo sapiens, UniProt Q15084); conditions: for R value (DMSO/fragment): 250 μM, in vitro; for isoTOP-ABPP ratio Q15084_C55: 500 μM, invitro
T1 sequence (Q15084 20-440): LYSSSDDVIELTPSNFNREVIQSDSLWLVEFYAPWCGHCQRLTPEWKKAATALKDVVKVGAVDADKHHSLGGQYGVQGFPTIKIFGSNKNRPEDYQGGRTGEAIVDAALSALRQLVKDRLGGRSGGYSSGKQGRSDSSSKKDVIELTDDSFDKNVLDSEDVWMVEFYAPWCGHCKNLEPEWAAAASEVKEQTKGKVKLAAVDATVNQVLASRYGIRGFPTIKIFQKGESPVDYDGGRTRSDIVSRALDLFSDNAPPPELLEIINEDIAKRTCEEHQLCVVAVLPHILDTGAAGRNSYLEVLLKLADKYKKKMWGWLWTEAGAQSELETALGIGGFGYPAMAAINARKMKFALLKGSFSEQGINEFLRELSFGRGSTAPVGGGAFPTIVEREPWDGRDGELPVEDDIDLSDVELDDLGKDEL

[4] = biological target: T2, PDIA6 C190 (Q15084) (Homo sapiens, UniProt Q15084); conditions: for R value (DMSO/fragment): 250 μM, in vitro; for isoTOP-ABPP ratio, Q15084_C190: 500 μM, invitro
T2 sequence (Q15084 20-440): T1 sequence (Q15084 20-440)

[5] = biological target: T3, PCK2 C306 (Q16822) (Homo sapiens, UniProt Q16822); conditions: for isoTOP-ABPP ratio, Q16822_C306: 500 μM, invitro
T3 sequence (Q16822 33-640): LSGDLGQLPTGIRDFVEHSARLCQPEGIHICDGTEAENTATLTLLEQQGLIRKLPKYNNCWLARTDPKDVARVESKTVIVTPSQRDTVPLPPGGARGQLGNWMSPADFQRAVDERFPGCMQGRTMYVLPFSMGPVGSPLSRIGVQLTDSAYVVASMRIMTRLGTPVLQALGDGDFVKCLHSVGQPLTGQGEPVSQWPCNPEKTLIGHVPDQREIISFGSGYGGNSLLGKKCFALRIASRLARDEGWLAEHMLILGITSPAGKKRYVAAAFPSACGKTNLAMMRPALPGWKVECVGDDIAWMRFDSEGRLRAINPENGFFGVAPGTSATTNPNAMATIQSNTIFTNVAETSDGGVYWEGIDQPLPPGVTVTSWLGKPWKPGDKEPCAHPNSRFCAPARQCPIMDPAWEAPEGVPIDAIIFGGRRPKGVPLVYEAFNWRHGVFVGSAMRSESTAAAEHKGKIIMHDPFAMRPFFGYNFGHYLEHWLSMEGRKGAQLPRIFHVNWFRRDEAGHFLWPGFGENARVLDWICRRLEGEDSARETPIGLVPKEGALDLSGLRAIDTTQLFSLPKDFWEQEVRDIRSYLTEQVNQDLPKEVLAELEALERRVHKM

[6] = biological target: XPO1 C528 (O14980) (Homo sapiens, UniProt O14980); conditions: for R value (DMSO/fragment): 250 μM, in vitro; for isoTOP-ABPP ratio O14980_C528: 500 μM, invitro
[7] = biological target: SMARCC2 C145 (Q8TAQ2) (Homo sapiens, UniProt Q8TAQ2); conditions: for isoTOP-ABPP ratio Q8TAQ2_C145: 500 μM, invitro
[8] = biological target: IDH1 C269 (O75874) (Homo sapiens, UniProt O75874); conditions: for R value (DMSO/fragment): 250 μM, in vitro; for isoTOP-ABPP ratio, O75874_C269: 500 μM, invitro
[9] = biological target: GNB2L1 C182 (P63244) (Homo sapiens, UniProt P63244); conditions: for isoTOP-ABPP ratio, P63244_C182: 500 μM, invitro
[10] = biological target: GSTP1 C48 (P09211) (Homo sapiens, UniProt P09211); conditions: for R value (DMSO/fragment): 250 μM, in vitro; for isoTOP-ABPP ratio, P09211_C48: 500 μM, invitro
[11] = biological target: SAMHD1 C522 (Q9Y3Z3) (Homo sapiens, UniProt Q9Y3Z3); conditions: for isoTOP-ABPP ratio, Q9Y3Z3_C522: 500 μM, invitro, 231

| isoTOP-ABPP ratio, P40763_C259 [1]; 231 | isoTOP-ABPP ratio, P68036_C86 [2]; 231 | isoTOP-ABPP ratio, P68036_C86 ([2]; ramos) | isoTOP-ABPP ratio Q15084_C55 [3]; 231 | isoTOP-ABPP ratio, Q15084_C190 ([4]; ramos) | isoTOP-ABPP ratio, Q16822_C306 [5]; 231 | isoTOP-ABPP ratio, Q16822_C306 ([5]; ramos) | isoTOP-ABPP ratio O14980_C528 [6]; 231 | isoTOP-ABPP ratio Q8TAQ2_C145 [7]; 231 | isoTOP-ABPP ratio, O75874_C269 [8]; 231 | isoTOP-ABPP ratio, P63244_C182 [9]; 231 | isoTOP-ABPP ratio, P63244_C182 ([9]; ramos) | isoTOP-ABPP ratio, P09211_C48 [10]; 231 | isoTOP-ABPP ratio, P09211_C48 ([10]; ramos) | isoTOP-ABPP ratio, Q9Y3Z3_C522 [11] | isoTOP-ABPP ratio, P40763_C259 ([1]; ramos) | isoTOP-ABPP ratio Q15084_C55 ([3]; ramos) | isoTOP-ABPP ratio, Q15084_C190 [4]; 231 | isoTOP-ABPP ratio O14980_C528 ([6]; ramos) | further results | SMILES |
| --- | --- | --- | --- | --- | --- | --- | --- | --- | --- | --- | --- | --- | --- | --- | --- | --- | --- | --- | --- | --- |
| – | – | – | – | – | – | – | – | – | – | – | – | – | – | – | – | – | – | – | R value (DMSO/fragment) ([1]; MDA-MB-231): 2.0; R value (DMSO/fragment) ([1]; Ramos): 1.9; R value (DMSO/fragment) ([2]; 250 μM, in vitro, MDA-MB-231): 1.2; R value (DMSO/fragment) ([3]; MDA-MB-231): 1.3; R value (DMSO/fragment) ([3]; Ramos): 1.2; R value (DMSO/fragment) ([4]; MDA-MB-231): 1.8; R value (DMSO/fragment) ([4]; Ramos): 1.2; R value (DMSO/fragment) ([5]; 250 μM, in vitro, MDA-MB-231): 2.2; R value (DMSO/fragment) ([6]; MDA-MB-231): 0.9; R value (DMSO/fragment) ([6]; Ramos): 1.1; R value (DMSO/fragment) ([7]; 250 μM, in vitro, MDA-MB-231): 1.3; R value (DMSO/fragment) ([8]; MDA-MB-231): 1.6; R value (DMSO/fragment) ([8]; Ramos): 0.6; R value (DMSO/fragment) ([9]; 250 μM, in vitro, MDA-MB-231): 0.9; R value (DMSO/fragment) ([10]; MDA-MB-231): 3.2; R value (DMSO/fragment) ([10]; Ramos): 0.5; R value (DMSO/fragment) ([11]; 250 μM, in vitro, MDA-MB-231): 1.5 | COc1ccc(C2CC(c3cccs3)=NN2C(=O)CCl)cc1 (centres unmarked) [compound 4] |
| 3.4 | 1.1 | 0.4 | 20.0 | 3.3 | 1.9 | 1.1 | 0.8 | 4.2 | 20.0 | 1.1 | 1.1 | 1.4 | 0.8 | 1.8 | – | – | – | – | – | O=C(CCl)N1CCN(S(=O)(=O)c2ccccc2F)CC1 [compound 10] |
| 20.0 | – | 1.0 | 20.0 | 20.0 | 3.2 | 1.2 | 1.0 | 20.0 | 1.1 | 1.0 | 1.1 | 1.7 | 1.1 | 2.1 | 20.0 | 20.0 | 20.0 | 0.7 | isoTOP-ABPP ratio, O75874_C269 ([8]; ramos): 0.7 | Cn1cc(S(=O)(=O)N2CCOCC2)cc1C(=O)NC(=O)CCl [compound 11] |
| – | 1.1 | 0.8 | 1.9 | 1.3 | 0.9 | 1.0 | – | – | 2.7 | 1.4 | 0.8 | 1.5 | 1.2 | 0.8 | 1.2 | 1.1 | 1.5 | 0.5 | isoTOP-ABPP ratio Q8TAQ2_C145 ([7]; ramos): 0.8 | O=C(CCl)NCCc1c[nH]c2ccccc12 [compound 13] |
